Data taken from US20140221499A1, “NOVEL RODENT CONTROL AGENTS AND USES THEREOF” (priority 2011, published 2014).

Experiments:
rTAAR8c = biological target: T1, rTAAR8c (Rattus norvegicus, UniProt Q923Y0); assay: CRE-SEAP reporter gene assay in HEK293 cells transfected with rTAAR8c; format: cell-based; settings: FIG. 11A, functional with or without 'Rho tag', EC50 ± s.e.m., 4-parameter Hill equation
T1 construct: Full Taar coding regions were cloned into pcDNA3.1; expressed in transfected cells; host or cells: HEK293
T1 sequence (Q923Y0 1-344): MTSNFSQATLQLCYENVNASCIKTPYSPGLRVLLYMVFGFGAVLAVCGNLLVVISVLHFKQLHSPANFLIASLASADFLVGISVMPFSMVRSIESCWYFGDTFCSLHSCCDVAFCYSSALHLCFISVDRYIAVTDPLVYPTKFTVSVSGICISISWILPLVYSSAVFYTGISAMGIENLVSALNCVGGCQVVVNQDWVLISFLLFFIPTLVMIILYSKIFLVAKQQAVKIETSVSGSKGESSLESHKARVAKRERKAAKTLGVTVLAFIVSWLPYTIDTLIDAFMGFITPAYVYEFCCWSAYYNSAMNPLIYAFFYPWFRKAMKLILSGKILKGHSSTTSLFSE
Protocol: (§1) FIG. 11 illustrates the dose-dependent responses of TAARs to amines. HEK293 cells were cotransfected with plasmids encoding CRE-SEAP and rTAARs (a) or mTAARs (b), incubated with concentrations of ligands indicated, and assayed for reporter activity (triplicates±s.d.). EC50 values (±s.e.m, bottom right) were calculated using SigmaPlot (Systat Software) and a 4-parameter Hill equation.
(§2) The following mixes (10 μM of each indicated compounds) were tested for their ability to activate rat TAARs. Mix 1: butylamine, dibutylamine, hexylamine. Mix 2: 2-aminopentane, isoamylamine, isobutylamine, isopropylamine. Mix 3: N,N-dimethylcyclohexylamine, 1-methylindole, tryptamine, phenylethylamine. Mix 4: indole, 1-methylpyrrolidine, 1-methylpiperidine, pyrrolidine. […]
(§3) Full Taar coding regions were cloned into pcDNA3.1-(Invitrogen) with or without a 5′ DNA extension of 69 bp encoding the first 20 amino acids of bovine rhodopsin followed by a cloning linker ([…]). […] Fluorescence was measured on an EnVision plate reader (Perkin Elmer) and SEAP activity graphed as relative fluorescence of a phosphatase substrate.
(§4) Here, we set out to identify agonists for additional mouse and rat TAARs. […] Transfected cells were incubated with test chemicals, and phosphatase activity was quantified with a fluorescent substrate as a reporter for TAAR activation. […]

rTAAR9 = biological target: T2, rTAAR9 (Rattus norvegicus, UniProt Q923Y6); assay: CRE-SEAP reporter gene assay in HEK293 cells transfected with rTAAR9; format: cell-based; settings: FIG. 11A, functional with or without 'Rho tag', EC50 ± s.e.m., 4-parameter Hill equation
T2 construct: Full Taar coding regions were cloned into pcDNA3.1; expressed in transfected cells; host or cells: HEK293
T2 sequence (Q923Y6 1-338): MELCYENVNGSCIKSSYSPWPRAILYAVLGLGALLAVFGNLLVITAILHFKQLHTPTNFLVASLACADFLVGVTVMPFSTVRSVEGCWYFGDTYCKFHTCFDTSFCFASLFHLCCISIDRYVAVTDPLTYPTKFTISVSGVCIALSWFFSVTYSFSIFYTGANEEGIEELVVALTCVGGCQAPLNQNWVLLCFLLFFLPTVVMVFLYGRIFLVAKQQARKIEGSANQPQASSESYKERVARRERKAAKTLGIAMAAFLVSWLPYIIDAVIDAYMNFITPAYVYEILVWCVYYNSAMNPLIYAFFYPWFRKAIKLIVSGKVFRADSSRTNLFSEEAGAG
Protocol: as §1, §2, §3, §4

mTAAR7b = biological target: T3, mTAAR7b (Mus musculus, UniProt Q5QD11); assay: CRE-SEAP reporter gene assay in HEK293 cells transfected with mTAAR7b; format: cell-based; design: Full Taar coding regions were cloned into pcDNA3.1; expressed in transfected cells; host or cells: HEK293; settings: FIG. 11B, functional with or without 'Rho tag', EC50 ± s.e.m., 4-parameter Hill equation
T3 sequence (Q5QD11 1-358): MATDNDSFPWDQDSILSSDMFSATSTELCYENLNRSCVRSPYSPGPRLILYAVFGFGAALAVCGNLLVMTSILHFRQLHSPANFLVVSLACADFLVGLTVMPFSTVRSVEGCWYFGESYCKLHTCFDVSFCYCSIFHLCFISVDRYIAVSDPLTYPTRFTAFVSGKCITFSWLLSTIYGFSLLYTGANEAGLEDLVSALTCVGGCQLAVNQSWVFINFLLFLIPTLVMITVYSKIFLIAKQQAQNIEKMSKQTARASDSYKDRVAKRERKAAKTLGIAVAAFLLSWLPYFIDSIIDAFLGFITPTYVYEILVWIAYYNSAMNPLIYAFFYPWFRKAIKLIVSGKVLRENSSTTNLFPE
Protocol: as §1
Chemicals tested for the ability to activate mouse TAARs include those previously described (Liberles, S. D., and Buck, L. B. (2006) A second class of chemosensory receptors in the olfactory epithelium, Nature 442, 645-650), as well as the following mixes (5 μM of each indicated compounds). Mix 1: N,N-dimethyl-cyclohexylamine, N,N-dimethyl-phenylethylamine, creatinine, taurine. […]
as §3, §4

rTAAR7h = biological target: T4, rTAAR7h (Rattus norvegicus, UniProt Q923Y4); assay: CRE-SEAP reporter gene assay in HEK293 cells transfected with rTAAR7h; format: cell-based; design: Full Taar coding regions were cloned into pcDNA3.1; expressed in transfected cells; host or cells: HEK293; settings: FIG. 11A, functional with or without 'Rho tag', EC50 ± s.e.m., 4-parameter Hill equation
T4 sequence (Q923Y4 1-358): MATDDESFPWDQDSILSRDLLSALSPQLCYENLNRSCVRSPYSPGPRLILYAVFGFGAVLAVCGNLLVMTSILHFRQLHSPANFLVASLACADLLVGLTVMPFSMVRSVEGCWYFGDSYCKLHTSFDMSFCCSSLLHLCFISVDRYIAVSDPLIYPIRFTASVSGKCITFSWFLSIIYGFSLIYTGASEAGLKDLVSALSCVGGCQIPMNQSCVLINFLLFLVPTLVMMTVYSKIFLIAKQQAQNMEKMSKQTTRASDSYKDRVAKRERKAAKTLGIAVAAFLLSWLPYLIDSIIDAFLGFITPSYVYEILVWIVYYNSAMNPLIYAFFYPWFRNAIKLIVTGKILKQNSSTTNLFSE
Protocol: as §1, §2, §3, §4

TAAR5 = biological target: T5, TAAR5 (Mus musculus, UniProt Q5QD14); settings: cited from earlier work
T5 sequence (Q5QD14 1-337): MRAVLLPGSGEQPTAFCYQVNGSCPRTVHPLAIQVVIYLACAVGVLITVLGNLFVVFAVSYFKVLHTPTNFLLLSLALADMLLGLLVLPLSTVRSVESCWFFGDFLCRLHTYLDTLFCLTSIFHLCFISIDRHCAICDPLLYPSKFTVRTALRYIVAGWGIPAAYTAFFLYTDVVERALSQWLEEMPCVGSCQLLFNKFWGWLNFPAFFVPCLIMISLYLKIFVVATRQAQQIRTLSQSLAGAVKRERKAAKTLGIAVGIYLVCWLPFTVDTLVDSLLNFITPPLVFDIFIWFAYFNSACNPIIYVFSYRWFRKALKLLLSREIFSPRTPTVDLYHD

## CN1CCCCC1 [1-methylpiperidine]
rTAAR8c
  EC50: 0.08 ± 0.02 µM
rTAAR9
  EC50: 18.3 ± 0.4 µM

## CCCCN(C)C [N,N-DIMETHYLBUTYLAMINE, N,N-dimethylbutylamine]
mTAAR7b
  EC50: 20.1 ± 8.9 µM

## CCCCCCCCN(C)C [N,N-DIMETHYLOCTYLAMINE, N,N-dimethyloctylamine]
rTAAR7h
  EC50: 12.7 ± 6.2 µM

## CN(C)C [Trimethylamine, trimethylamine]
TAAR5
  TAAR5 activation: activates TAAR5
